Laboratory results published in paper PMC8822125, “RW-BP100-4D, a Promising Antimicrobial Candidate With Broad-Spectrum Bactericidal Activity” (Frontiers in Microbiology, 2022).
In brackets after ≈: the same amount, converted by molar mass. Where a SMILES comes first, the peptide text is derived from it.

Assays:
MAC-T cells = conditions: peptide 150 μg/mL, 24 h, WST-1, mean ± SD, three repeats
RAW264.7 cells = conditions: peptide 150 μg/mL, 24 h, WST-1, mean ± SD, three repeats
[1] = system: Staphylococcus aureus ATCC29213; assay: MIC/MBC, broth microdilution; format: cell-based; conditions: Table 1; broth microdilution CLSI M100-S25, MH broth, 37°C, 18 h, three independent repeats
[2] = system: Escherichia coli ATCC25922; conditions: Table 1; broth microdilution CLSI M100-S25, MH broth, 37°C, 18 h, three independent repeats
sheep red blood cells = sheep red blood cells in PBS, 37°C, 1 h, OD576, relative to melittin, mean ± SD, three repeats; for Hemolytic rate, 50 μg/mL: 50 μg/mL peptide; for Hemolytic rate, 100 μg/mL: 100 μg/mL peptide; for Hemolytic rate, 150 μg/mL: 150 μg/mL peptide; for Hemolytic rate, 300 μg/mL: 300 μg/mL peptide;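 as to all read-outs here: hemolysis expressed in % from supernatant absorbance, with PBS-treated cells as 0% baseline and melittin as 100%, peptide mixed 1:1 with an 8% v/v erythrocyte suspension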

Compound | Cell survival rate, MAC-T (MAC-T cells) | Cell survival rate, RAW264.7 (RAW264.7 cells) | MIC Staphylococcus aureus ATCC29213 [1] | MIC Escherichia coli ATCC25922 [2] | Hemolytic rate, 50 μg/mL (sheep red blood cells) | Hemolytic rate, 100 μg/mL (sheep red blood cells) | Hemolytic rate, 150 μg/mL (sheep red blood cells) | Hemolytic rate, 300 μg/mL (sheep red blood cells)
CC[C@H](C)[C@H](NC(=O)[C@H](CCCNC(=N)N)NC(=O)[C@H](CCCNC(=N)N)NC(=O)[C@H](Cc1ccccc1)NC(=O)[C@H](CC(C)C)NC(=O)[C@H](CCCNC(=N)N)NC(=O)[C@H](N)CCCNC(=N)N)C(=O)N[C@@H](CC(C)C)C(=O)N[C@@H](CCCNC(=N)N)C(=O)N[C@@H](Cc1c[nH]c2ccccc12)C(=O)N[C@@H](CC(C)C)C(N)=O [RW-BP100-1D] (HELM PEPTIDE1{[dR].R.L.F.R.R.I.L.R.W.L.[am]}$$$$V2.0) | 52.71 ± 5.68% | 9.55 ± 2.45% | 25 µg/mL (≈ 15.8 µM) | 12 µg/mL (≈ 7.58 µM) | 4.61 ± 0.47% | 5.49 ± 0.23% | 39.81 ± 0.20% | 52.88 ± 3.06%
CC[C@H](C)[C@H](NC(=O)[C@H](CCCNC(=N)N)NC(=O)[C@H](CCCNC(=N)N)NC(=O)[C@H](Cc1ccccc1)NC(=O)[C@H](CC(C)C)NC(=O)[C@@H](CCCNC(=N)N)NC(=O)[C@@H](N)CCCNC(=N)N)C(=O)N[C@@H](CC(C)C)C(=O)N[C@@H](CCCNC(=N)N)C(=O)N[C@@H](Cc1c[nH]c2ccccc12)C(=O)N[C@@H](CC(C)C)C(N)=O [RW-BP100-2D] (HELM PEPTIDE1{R.[dR].L.F.R.R.I.L.R.W.L.[am]}$$$$V2.0) | 63.07 ± 3.23% | 6.83 ± 5.69% | 25 µg/mL (≈ 15.8 µM) | 12 µg/mL (≈ 7.58 µM) | 4.83 ± 1.08% | 5.99 ± 0.79% | 39.16 ± 1.75% | 62.12 ± 6.27%
CC[C@H](C)[C@H](NC(=O)[C@H](CCCNC(=N)N)NC(=O)[C@H](CCCNC(=N)N)NC(=O)[C@H](Cc1ccccc1)NC(=O)[C@@H](CC(C)C)NC(=O)[C@H](CCCNC(=N)N)NC(=O)[C@@H](N)CCCNC(=N)N)C(=O)N[C@@H](CC(C)C)C(=O)N[C@@H](CCCNC(=N)N)C(=O)N[C@@H](Cc1c[nH]c2ccccc12)C(=O)N[C@@H](CC(C)C)C(N)=O [RW-BP100-3D] (HELM PEPTIDE1{R.R.[dL].F.R.R.I.L.R.W.L.[am]}$$$$V2.0) | 50.63 ± 2.36% | 7.69 ± 7.89% | 25 µg/mL (≈ 15.8 µM) | 50 µg/mL (≈ 31.6 µM) | 3.49 ± 0.76% | 4.04 ± 0.20% | 38.13 ± 3.12% | 55.73 ± 5.27%
CC[C@@H](C)[C@@H](NC(=O)[C@H](CCCNC(=N)N)NC(=O)[C@H](CCCNC(=N)N)NC(=O)[C@H](Cc1ccccc1)NC(=O)[C@H](CC(C)C)NC(=O)[C@H](CCCNC(=N)N)NC(=O)[C@@H](N)CCCNC(=N)N)C(=O)N[C@@H](CC(C)C)C(=O)N[C@@H](CCCNC(=N)N)C(=O)N[C@@H](Cc1c[nH]c2ccccc12)C(=O)N[C@@H](CC(C)C)C(N)=O [RW-BP100-7D] (HELM PEPTIDE1{R.R.L.F.R.R.[dI].L.R.W.L.[am]}$$$$V2.0) | 96.41 ± 3.75% | 93.74 ± 1.25% | 25 µg/mL (≈ 15.8 µM) | 25 µg/mL (≈ 15.8 µM) | 0.53 ± 1.12% | 1.11 ± 0.19% | 16.17 ± 3.36% | 45.65 ± 5.13%
